Experiments:
[1] = tested on: Fischer rats renal grafts from cardiac arrest donation; assay: DCD renal graft preservation with xenon or argon with or without dexmedetomidine, then transplantation; format: in vivo, rat; conditions: UW saturated with 70% gas, with or without Dex 0.1 nM; day 8 after transplantation
Protocol: Briefly, after intravenous heparinization (300 U) in 1 ml saline via the penile vein under 2% isoflurane anaesthesia, cardiac arrest was induced by cervical dislocation (schedule 1 killing). The cessation of the heart beat was observed within 3-5 minutes and donor animals were kept for 40 minutes on a 37° C. pad.
This protocol was obtained from our pilot studies and the both graft injury and a therapeutic window can be achieved. The preserving solution was saturated with 70% nitrogen, xenon or argon gas, combined with or without dexmedetomidine 0.1 nM [32]. […] Macrophage infiltration and renal fibrosis were attenuated by the treatments on day 16 after surgery (FIGS. 12A-12D).
With respect to FIGS. 10A-10D, Fischer rats renal grafts from cardiac arrest donation were stored with UW preserving solution at 4° C., saturated with nitrogen or xenon or argon gas (70% N2 or Xe or Ar and 5% CO2 balanced with O2 supplemented with Dex), machine perfused for 4 hours and stored until 24 hours. Normal kidney graft serves as naive control (NC), grafts treated with preserving solution only served as sham, and the grafts were then transplanted into Lewis recipient and finally harvested day 8 after transplantation. (FIG. 10A) Renal morphology were assessed by H and E staining (n=4-6) and (FIG. 10B) evaluated by the injury scoring system. (FIG. 10C) TUNEL staining of renal tubules in renal cortex. […]

[2] = tested on: ex vivo renal grafts from brain death or cardiac arrest donors; assay: Rat hypothermic machine perfusion model; conditions: exposure of ex vivo grafts prior to engraftment
[3] = tested on: renal grafts from live donor; conditions: preserving solution saturated with argon; cited from earlier work
brain = conditions: 70% argon; cited from earlier work
[4] = tested on: Lewis rat lung grafts extracted after cardiac death; assay: DCD lung graft stored in Dex-saturated UW after donor treatment with Nrf-2 siRNA or atipamezole; conditions: given to donor before extraction
Protocol: Nrf-2 siRNA or scrambled siRNAs (negative control) (QIAGEN®) were dissolved in siRNA suspension buffer and further diluted in RNase-free PBS before use. siRNA targeting rat Nrf-2 (sc-37030, SANTA CRUZ BIOTECHNOLOGY®, USA) was administered through hydrodynamic tail vein injection. Nrf-2 or scrambled siRNA ([…] in 10 ml of PBS) was rapidly injected (within 30 s) via a tail vein under anaesthesia and allow to recover for 24 h before the experiment. Atipamezole (α2-adrenergic antagonist, SIGMA-ALDRICH®, St. Louis, Mo., USA, 250 μg/kg, i.p.) was administered 10 minutes graft extraction.
In order to further investigate the mechanisms underlying the protective effects of dexmedetomidine on lung grafts, Nrf-2 siRNA and atipamezole treatment was administered donor before lung grafts extraction. The grafts were subsequently stored in Dex-saturated UW solution. TLR-4 and RIP3 immunofluorescent labelling was performed in lung grafts, with and without Nrf-2 siRNA (FIG. 9A), and with and without atipamezole treatment (FIG. 9B). […] 3-nitrotyrosine and 4-hydroxynonenal immunofluorescent labelling was performed in lung alveolar cells at CI 16 h, with and without Nrf-2 siRNA or with and without atipamezole treatment (FIGS. 9E and 9F) at CI 16 h. […] Together, these findings indicate that upregulation of the Nrf-2 and α2 adrenergic pathways are both critical to the protective effects of Dex on lung grafts. […] With respect to FIGS. 9A-9K, Lewis rat lung grafts were extracted after cardiac death and stored in 4° C. UW solution saturated with Dex (0.1 nM) or without Dex (Vehicle) for 16 hours (lung graft cold ischemia CIO 16 hr). Nrf-2 siRNA or atipamezole was given to the donor before graft extracting. Dual labelling of Rip-3 (red) and TLR-4 (green) in lung tissue after (FIG. 9A) SiRNA treatment or (FIG. 9B) atipamezole. Fluorescent intensity of (FIG. 9C) RIPK3 and (FIG. 9D) TLR-4 in lung tissue. The expression of 3-nitrotyrosine and 4-hydroxynonenal was assessed with immunofluorescent labelling after (FIG. 9E) SiRNA treatment or (FIG. 9F) Atipamezole. Fluorescent intensity of (FIG. 9G) 3-nitrotyrosine and (FIG. 9H) 4-hydroxynonenal. Nuclei were counterstained with 4′,6-diamidino-2-phenylindole (DAPI) (blue). (FIGS. 9I and 9K) Histology (haematoxylin and eosin staining) of the lung graft and injury score. (FIG. 9J) HMGB-1 in lung graft tissue, were assessed by ELISA. Scale bar: 50 μm. […] NC: naïve control, rCI: renal graft cold ischemia. HMGB, high mobility group box 1 protein; CI, cold ischaemia; NC, naïve control; TLR-4, toll-like receptor 4.

[5] = tested on: isografts, weak immune-allografts and strong immuno-allografts; conditions: xenon to living donor before graft retrieval or to recipient after engraftment; cited from earlier work
ex-vivo rat kidney = conditions: cited from earlier work
kidney = conditions: in vivo; cited from earlier work
[6] = ice-cold Soltran saturated with 70% Xe, 24 hrs, vs 70% N2

What does the source list for [Ar] [argon]?
renal architecture during prolonged cold preservation (H&E injury score, TUNEL) [1]: preserved the renal architrave; organ graft injury, histologically and functionally [2]: prevent organ graft injury; preservation of renal grafts against hypothermic-ischemic injury [3]: superior in preserving renal grafts; neuroprotection (brain): neuro-protective

What does the source list for CCC1(c2cnc[nH]2)Cc2ccccc2C1 [atipamezole, Atipamezole]?
3-nitrotyrosine expression (fluorescent intensity) ([4]; CI 16 h): significant increase; 4-hydroxynonenal expression (fluorescent intensity) ([4]; CI 16 h): significant increase; HMGB-1 expression in lung graft tissue (ELISA) ([4]; CI 16 hr): significantly increased; expression of RIP3 (fluorescent intensity) ([4]; CI 16 hr): enhanced expression; lung injury scoring ([4]; CI 16 hr): significant increase; lung morphology (H&E) ([4]; CI 16 hr): deteriorated significantly; expression of TLR-4 (fluorescent intensity) ([4]; CI 16 hr, p<0.01): enhanced expression

With [Xe] [xenon] as the compound, how does the “renal architecture during prolonged cold preservation (H&E injury score, TUNEL)” value [1] read?
Its value is “preserved the renal architrave”.

And the “organ graft injury, histologically and functionally” value [2]?
The value was “prevent organ graft injury”.

What about the early graft injury [5] of the same compound?
Its early graft injury is “protected against early graft injury”.

What about the graft survival [5] of the same compound?
Its graft survival is “prolonged graft survival”.

What about the delayed graft function (ex-vivo rat kidney; after engraftment) of the same compound?
Its delayed graft function is “reduced”.

What about the renal inflammation (ex-vivo rat kidney; after engraftment) of the same compound?
The renal inflammation was “reduced”.

What about the fibrosis (ex-vivo rat kidney; day 8 after surgery) of the same compound?
Its fibrosis is “significantly reduced”.

And the macrophage infiltration (ex-vivo rat kidney; day 8 after surgery)?
The macrophage infiltration was “significantly reduced”.

What about the “expression of Bcl-2” value (ex-vivo rat kidney; [6]) of the same compound?
The value was “enhanced expression”.

What about the “expression of HSP-70” value (ex-vivo rat kidney; [6]) of the same compound?
Its value is “enhanced expression”.

And the tubular cell death (ex-vivo rat kidney; twenty-four hrs after engraftment)?
Its tubular cell death is “significantly decreased”.

What about the “morphological structure of the ex-vivo rat kidney” value (ex-vivo rat kidney; xenon-containing Soltran solution) of the same compound?
The value was “well preserved”.

And the “kidney warm ischemic injury” value (kidney)?
The value was “protect against kidney warm ischemic injury”.

Source: patent US20200329698A1, “COMPOSITIONS FOR ORGAN GRAFT PRESERVATION AND METHODS OF USE” (Nobilis Therapeutics, Inc., priority 2019, published 2020)
